{"source": "patent US20240181087A1", "about": "“COMPOSITION FOR CONTRAST IMAGING OF CANCER” (ASTELLAS PHARMA INC., priority 2021, published 2024)", "key": {"[1]": {"test_system": "CT26 (colorectal cancer cell)", "assay": "near-infrared fluorescence imaging after administration into tumor, CT26 colorectal cancer model", "format": "in vivo, mouse", "settings": "0.02 to 0.05 mL of 1 mg/mL saline, transdermal imaging", "description": "(§1) A syngeneic tumor transplanted mouse model was created as follows referring to “Gan-Shikkan Model no Sakusei to Riyo (Cancer-Creation and Use of Disease Model)” (Takuro Nakamura, LIC, 2012). • (Breast Cancer) A tumor model was created by breeding a normal Balb/c mouse (weight: about 20 g to 30 g) for 14 days with mouse tumor cell 4T1 subcutaneously administered thereto. • (Colorectal Cancer) A tumor model was created by breeding a normal Balb/c mouse (weight: about 20 g to 30 g) for 14 days with CT26 (colorectal cancer cell) subcutaneously administered thereto. • (Skin Cancer) A tumor model was created by breeding a C57BL/6 mouse (weight: about 15 g to 20 g) for 14 days with B16F1 (skin cancer cell) subcutaneously administered thereto.\n(§2) Subsequently, to the tumor of each of the model mice, 0.02 to 0.05 mL of a saline containing the compound III or ICG (concentration of the compound III or ICG: 1 mg/mL) was administered, and fluorescence imaging was performed transdermally with a near-infrared fluorescence camera (Fluobeam, manufactured by Fluoptics, http://www.solve-net.com/info/wp-content/uploads/downloads/2013/12/Fluobeam.pdf) (excitation wavelength: 780 nm, detection wavelength: 800 nm or more)."}, "[2]": {"test_system": "Human esophageal cancer cell KYSE850", "assay": "near-infrared fluorescence observation, human esophageal cancer subcutaneous transplant mouse model", "format": "in vivo", "settings": "nude mouse, tail vein 120 nmol/kg, 30 seconds after administration", "description": "Human esophageal cancer cell KYSE850 was subcutaneously transplanted into the neck of a nude mouse (BALB/cSlc-nu, SPF, male, 5 weeks old), and the resultant mouse was bred for 18 days to create a mouse having esophageal cancer grown therein. The human esophageal cancer cell KYSE850 was purchased from JCRB cell bank of National Institutes of Biomedical Innovation, Health and Nutrition (Registration Number: JCRB1422, establisher: Graduate School of Pharmaceutical Sciences, Kyoto University, Department of Nanobio Drug Discovery, Yutaka Shimada).\nThe near-infrared fluorescence from a cancer tissue (circled site) was strong, and that from a normal tissue was weak (FIG. 25). It is noted that fluorescence in an elliptical frame corresponds to near-infrared fluorescence from the right and left kidneys."}, "mouse tumor cell 4T1": {"test_system": "mouse tumor cell 4T1", "assay": "near-infrared fluorescence imaging after administration into tumor, 4T1 breast cancer model", "format": "in vivo", "description": "as §1, §2"}, "[3]": {"test_system": "mouse bladder cancer cell MB49", "assay": "near-infrared fluorescence observation of bladder after tail vein administration, MB49 bladder cancer mouse model", "format": "in vivo", "method": "Two bladder cancer mouse models (weight: about 20 g), having mouse bladder cancer cell MB49 transplanted in the bladder mucosa, and then grown for 3 weeks or 4 weeks, were used. To the tail vein of each of the mice, 0.2 mL of a saline containing the compound III (concentration of the compound III: 0.075 mg/mL) was administered, and after 1 day, the mouse was subjected to laparotomy under anesthesia by subcutaneous administration of ketamine (75 mg/kg) and medetomidine (1 mg/kg), and near-infrared fluorescence observation was performed with a near-infrared fluorescence imaging device (pde-neo, manufactured by Hamamatsu Photonics K.K., excitation wavelength: 760 nm, detection wavelength: fluorescence of 800 nm or more, the same applies hereinafter) (FIG. 1, right: near-infrared fluorescence image).\nAs a comparative example, a saline containing the compound III was administered to the tail vein of a normal mouse (weight: about 20 g), and after 1 day, the mouse was subjected to laparotomy under anesthesia by subcutaneous administration of ketamine (75 mg/kg) and medetomidine (1 mg/kg), and near-infrared fluorescence observation was performed with a near-infrared fluorescence imaging device (pde-neo, manufactured by Hamamatsu Photonics K.K.) (FIG. 2).\nTwo bladder cancer model mice (weight: about 20 g), having mouse bladder cancer cell MB49 transplanted in the bladder mucosa, and then grown for 3 weeks or 4 weeks, were used. To the tail vein of each of the mice, 0.2 mL of a saline containing the compound III (concentration of the compound III: 0.075 mg/mL) was administered. One day after the administration, the mouse was subjected to laparotomy under anesthesia by subcutaneous administration of ketamine (75 mg/kg) and medetomidine (1 mg/kg), and under observation of near-infrared fluorescence with a near-infrared fluorescence imaging device (pde-neo, manufactured by Hamamatsu Photonics K.K.), a cancer tissue site emitting near-infrared fluorescence was taken out for near-infrared fluorescence observation (FIG. 5, right: near-infrared fluorescence image). […]"}, "RenCa cell": {"test_system": "RenCa cell", "assay": "near-infrared fluorescence imaging of liver, liver cancer-bearing mouse (RenCa, intravenous inoculation)", "format": "in vivo", "settings": "tail vein 120 nmol/kg, after 10 minutes, laparotomy", "method": "Metastatic spontaneous renal cell carcinoma line from BALB/c mouse, RenCa cell (1×10^6 cells, purchased from CLS Cell Lines Service GmbH, Eppelheim, Germany) was intravenously inoculated into a mouse (BALB/cCrSlc, SPF, female, 7 weeks old) under anesthesia by subcutaneous administration of ketamine (75 mg/kg) and medetomidine (1 mg/kg), and the resultant mouse was bred for 18 days to cause liver cancer therein. The mouse was anesthetized by subcutaneous administration of ketamine (75 mg/kg) and medetomidine (1 mg/kg), and the compound III (120 nmol/kg weight) was administered through the tail vein. After 10 minutes, laparotomy was conducted to perform near-infrared fluorescence imaging with a near-infrared fluorescence imaging device (pde-neo, manufactured by Hamamatsu Photonics K.K.). Near-infrared fluorescence of the compound III from a liver normal tissue was strong, light emission of the compound III from a liver cancer site (framed site in the right image) was very weak, and thus, the normal site and the cancer site could be distinguished from each other depending on the light emission (FIG. 19)."}}, "data": [{"smiles": "COC1=C(/C=C/C2=[N+](CCC(=O)NCCCO[C@H]3[C@H]4O[C@H]5[C@H](O)[C@@H](O)[C@@H](O[C@H]6[C@H](O)[C@@H](O)[C@@H](O[C@H]7[C@H](O)[C@@H](O)[C@@H](O[C@H]8[C@H](O)[C@@H](O)[C@@H](O[C@H]9[C@H](O)[C@@H](O)[C@@H](O[C@H]%10[C@H](O)[C@@H](O)[C@@H](O[C@@H]([C@@H]3O)[C@@H](CO)O4)O[C@@H]%10CO)O[C@@H]9CO)O[C@@H]8CO)O[C@@H]7CO)O[C@@H]6CO)O[C@@H]5CO)c3ccc4ccccc4c3C2(C)C)CCC/C1=C\\C=C1\\N(CCC(=O)NCCCO[C@H]2[C@H]3O[C@H]4[C@H](O)[C@@H](O)[C@@H](O[C@H]5[C@H](O)[C@@H](O)[C@@H](O[C@H]6[C@H](O)[C@@H](O)[C@@H](O[C@H]7[C@H](O)[C@@H](O)[C@@H](O[C@H]8[C@H](O)[C@@H](O)[C@@H](O[C@H]9[C@H](O)[C@@H](O)[C@@H](O[C@@H]([C@@H]2O)[C@@H](CO)O3)O[C@@H]9CO)O[C@@H]8CO)O[C@@H]7CO)O[C@@H]6CO)O[C@@H]5CO)O[C@@H]4CO)c2ccc3ccccc3c2C1(C)C.[Cl-]", "note": "[compound III, 3-(3-{[3-(cyclomaltoheptaose-21-O-yl)propyl]amino}-3-oxopropyl)-2-{(1E)-2-[(3E)-3-{(2E)-2-[3-(3-{[3-(cyclomaltoheptaose-21-O-yl)propyl]amino}-3-oxopropyl)-1,1-dimethyl-1,3-dihydro-2H-benzo[e]indol-2-ylidene]ethylidene}-2-methoxycyclohexa-1-en-1-yl]ethene-1-yl}-1,1-dimethyl-1H-benzo[e]indol-3-ium chloride]", "values": [{"measurement": "retention in tumor (fluorescence imaging)", "setting": "[1]", "value": "retained in the tumor"}, {"measurement": "near-infrared fluorescence from esophageal cancer tissue", "setting": "[2]", "value": "strong"}, {"measurement": "near-infrared fluorescence from normal tissue", "setting": "[2]", "value": "weak"}, {"measurement": "retention in tumor (fluorescence imaging)", "setting": "mouse tumor cell 4T1; 4T1 breast cancer model, 0.02 to 0.05 mL of 1 mg/mL saline, transdermal imaging", "value": "retained in the tumor"}, {"measurement": "drawing of tumor outline / exudation to surrounding tissues", "setting": "mouse tumor cell 4T1; 4T1 tumor, 1 mg/mL saline, fluorescence imaging, incl. during tumor excision operation", "value": "did not exude to surrounding tissues but the outline of the tumor was drawn"}, {"measurement": "excision of tumor tissue with fluorescence emitted from the cancer tissue used as a guide", "setting": "[3]; MB49 bladder cancer mouse model, 0.2 mL saline 0.075 mg/mL, 1 day after administration", "value": "could be appropriately excised"}, {"measurement": "near-infrared fluorescence in cancer tissue of the bladder", "setting": "[3]; MB49 bladder cancer mouse model, 0.2 mL saline 0.075 mg/mL, after 1 day, laparotomy", "value": "specifically observed"}, {"measurement": "near-infrared fluorescence of normal tissue (bladder)", "setting": "[3]; normal mouse, after 1 day, laparotomy", "value": "did not emit near-infrared fluorescence"}, {"measurement": "light emission from liver cancer site", "setting": "RenCa cell", "value": "very weak"}, {"measurement": "near-infrared fluorescence from liver normal tissue", "setting": "RenCa cell", "value": "strong"}]}]}
